Experimental findings from ChEMBL document CHEMBL3507680, “University of Dundee, Gates Library screen for HepG2 cell viability” are described below.

Structures are written as SMILES.

The series can be described thus: Human HepG2 cell viability assay in 384 well format. In kind it is toxicity, cell-based. The arrangement: dose 125 nL, time 70.5 hour; cytotoxicity at 70.5 h: concentration not given beside the values. The following applies: HepG2 cells, read-out: Inhibition.
With `CC(C)N1CCC(N2CCN(C3CCCCC3)CC2CCO)CC1` (configuration not stated), the cytotoxicity at 70.5 h was -10.5%.

For `CN1CCC(c2n[nH]c(=O)n2CC2CCCCC2)CC1`, the cytotoxicity at 70.5 h was -8.59%.

Regarding `Cn1ncc2c(NCCOCc3ccccc3)nc(C3CCCC3)nc21`, the cytotoxicity at 70.5 h is -3.35%.

Regarding `C[C@H]1CC[C@H](C(=O)N2CCC(n3cc(C4(O)CCCC4)nn3)CC2)CC1`, the cytotoxicity at 70.5 h is -16.2%.

In the case of `CSCCCNC(=O)C1CCC(=O)N(C2CCCC2)C1` (configuration not stated), the cytotoxicity at 70.5 h was -3.06%.

For `O=C1CCCN1C1CCCN(CCn2cc(Cl)cn2)C1` (configuration not stated), the cytotoxicity at 70.5 h was -26.9%.

With `O=C(CC1CCC1)N1CCCC(CO)(CC2CC2)C1` (configuration not stated), the cytotoxicity at 70.5 h is -7.78%.

Take `CC(C)[C@@H]1CN(C(=O)c2ccsc2)C[C@H]1C(=O)O`: the cytotoxicity at 70.5 h is -6.74%.

For the compound `Cc1cc(CN2CCC(C3CCN(CC(C)C)CC3)C2)[nH]n1` (configuration not stated), the cytotoxicity at 70.5 h is -3.48%.

For `O=C(Cn1cccn1)N(CCO)CCSc1ccc(Cl)cc1`, the cytotoxicity at 70.5 h is -11.6%.

As for `Cc1cc(C)c2c(NCc3nncn3C3CCCCC3)ncnc2n1`, the cytotoxicity at 70.5 h was -13.6%.

With `CC(C)c1nccn1C(C)C(=O)NC1CCOCC1` (configuration not stated), the cytotoxicity at 70.5 h amounted to 2.76%.

Consider `Cc1nccn1-c1ccc(N2CCC(N[C@H](C)C(C)C)CC2)cc1`, for which the cytotoxicity at 70.5 h turned out to be 0.757%.

With `CCNc1ncc(C(=O)N[C@H](C(N)=O)c2ccccc2)cn1`, the cytotoxicity at 70.5 h worked out at 24%.

Turning to `COCCNc1nc(C)nc2c1CCN(C[C@H]1CC[C@@H](N)CC1)CC2`, the cytotoxicity at 70.5 h worked out at 44.2%.

For the compound `O=C(NCC(O)c1cccc(F)c1)C1CCN(C2CCCCC2)CC1` (configuration not stated), the cytotoxicity at 70.5 h is -16.4%.

Regarding `CN(CCc1cn[nH]c1)Cc1nc(Cc2cccc(F)c2)no1`, the cytotoxicity at 70.5 h worked out at 19%.

As for `CCc1cc(N2CCN(c3cnccn3)CC2)n2nc(C)c(C)c2n1`, the cytotoxicity at 70.5 h was determined as 10.7%.

In the case of `COc1ccc(CCN2CC(c3nc(CSC)no3)CCC2=O)cc1` (configuration not stated), the cytotoxicity at 70.5 h is -4.88%.

Consider `COC(=O)[C@@H](NC(=O)c1coc(COc2cccc(F)c2)n1)C(C)C`, for which the cytotoxicity at 70.5 h came out at 4.83%.

As to `O=C1OCCN1Cc1cccc(F)c1C(F)(F)F`, the cytotoxicity at 70.5 h is -5.55%.

As to `CNc1ccc(Cl)cc1C(=O)N1CCC(Cn2cc(CN)nn2)CC1`, the cytotoxicity at 70.5 h is 1.05%.

For `CO[C@H]1CNC[C@@H]1NC(=O)c1cc(C)nc2ccc(C)cc12`, the cytotoxicity at 70.5 h is 12.1%.

With `Cc1nc(N(C)C)nc(-c2cccc(-c3ccn(CCCF)n3)c2)c1C`, the cytotoxicity at 70.5 h is -10.9%.

Take `CCOCCC(=O)N1Cc2cnc(-c3ccccc3)nc2C1`: the cytotoxicity at 70.5 h was -12.5%.

As for `CCN(CC)Cc1nc(Cc2cccc(C(F)(F)F)c2)no1`, the cytotoxicity at 70.5 h was -7.89%.

On to `COC[C@H]1CCCN1c1nccc(-c2cnn(-c3ccccc3C)c2)n1`, for which the cytotoxicity at 70.5 h is -1.39%.

As for `CCS(=O)(=O)c1ncc(CN(C)Cc2ccc(C)o2)n1CCOC`, the cytotoxicity at 70.5 h is 17.1%.

`CSCc1ccc(N2CCN(c3ccc(Cl)cn3)CC2)nc1`: the cytotoxicity at 70.5 h is 3.63%.

Turning to `Cc1cccc(CN2CCN(c3nc(CO)cs3)CC2)c1`, the cytotoxicity at 70.5 h was -4.76%.

As for `COCCN1CCC(CNC(=O)Nc2ccc(SC(F)(F)F)cc2)C1` (configuration not stated), the cytotoxicity at 70.5 h is -1.27%.

As to `O=C(Nc1ccccc1CCc1ccccn1)NC1CCOCC1`, the cytotoxicity at 70.5 h was found to be 0.573%.

Take `Cc1cnc(NCC(C)(C)N2CCN(C)CC2)nc1`: the cytotoxicity at 70.5 h is -0.355%.

As to `CCC[C@@H]1CN(Cc2ccc(C(F)(F)F)nc2)C[C@H]1C(=O)O`, the cytotoxicity at 70.5 h was -8.04%.

In the case of `CC(C)c1cc(C(=O)N2C[C@H]3CC[C@@H]2CN(Cc2ccccn2)C3)no1`, the cytotoxicity at 70.5 h is -7.13%.

Take `COc1ccc2c(C)nc(N3CCN([C@H]4CCCC[C@@H]4O)CC3)nc2c1`: the cytotoxicity at 70.5 h worked out at 18.8%.

On to `COCCN1C(=O)[C@H]2CC[C@@H]1CN(S(=O)(=O)c1ccc(OC)cc1)C2`, for which the cytotoxicity at 70.5 h was -3.09%.

Regarding `CCSc1ncc(-c2cc(C3CCC3)nc(N)c2C#N)cn1`, the cytotoxicity at 70.5 h stood at 9.11%.

`Cc1ccccc1C1CCN(CCn2cc(-c3cccc(O)c3)nn2)C1` (configuration not stated): the cytotoxicity at 70.5 h was found to be 29.4%.

Consider `O=C(CCN1CCCC1c1ccccn1)N1CCc2ccccc2C1` (configuration not stated), for which the cytotoxicity at 70.5 h is -16.1%.

`CCOc1ccc(C(=O)CCC(=O)N(C)Cc2nc(C)c[nH]2)cc1C`: the cytotoxicity at 70.5 h was -19.8%.

In the case of `COc1ccccc1-c1ncc(CN2C[C@@H](N(C)C)[C@H](C(C)C)C2)s1`, the cytotoxicity at 70.5 h is -5.83%.

On to `CS(=O)(=O)NCCC(=O)NCc1cccnc1-n1cnc2ccccc21`, for which the cytotoxicity at 70.5 h was -12.6%.

`CN(C)C(=O)N1CCCC(C(=O)N(C)CCCc2cnn(C)c2)C1` (configuration not stated): the cytotoxicity at 70.5 h is -11.5%.

For the compound `CN1CCN(C[C@@H]2CN(C(=O)CC3CCCCC3)C[C@@H]2CO)CC1`, the cytotoxicity at 70.5 h stood at 0.234%.

With `CN(CCCO)C(=O)c1cc(COc2ccc3c(c2)CCCC3)on1`, the cytotoxicity at 70.5 h was -7.55%.

Take `CCc1c(O)nc(SCC(=O)Nc2ccccc2)n(C(C)CC)c1=O` (configuration not stated): the cytotoxicity at 70.5 h came to 22%.

As to `O=C(CCc1nc(Cl)n[nH]1)NC1CCCN(C2Cc3ccccc3C2)C1` (configuration not stated), the cytotoxicity at 70.5 h was -9.23%.

As to `Cc1nc(CNC(=O)c2cc(COc3ccccc3)[nH]n2)n[nH]1`, the cytotoxicity at 70.5 h is -5.91%.

Turning to `COc1ccc(CN2CCCC2)cc1Oc1ccc(NC(C)=O)cc1`, the cytotoxicity at 70.5 h is -3.35%.

For the compound `Cc1cnc(C(=O)N2C[C@H]3CC[C@@H]2CN(c2cnccn2)C3)cn1`, the cytotoxicity at 70.5 h was -2.4%.

As for `Cc1nc(N2CCN(C)CC2)ncc1C(=O)N1C[C@@H](C)[C@@](C)(O)C1`, the cytotoxicity at 70.5 h came to 4.1%.

Consider `CN(C)[C@H]1CCCCN(Cc2cnc(NCc3ccccc3)nc2)C1`, for which the cytotoxicity at 70.5 h is -1.39%.

Take `CN1CCCN(Cc2nc(Cc3ccccc3)n[nH]2)CC1`: the cytotoxicity at 70.5 h is -3.87%.

Take `CC(C)N1CC2(CCC1=O)CCN(c1ccnc3ccccc13)CC2`: the cytotoxicity at 70.5 h is 41.8%.

With `CCc1nc(N)sc1C(=O)N1CCCC(COc2cccc(C)c2)C1` (configuration not stated), the cytotoxicity at 70.5 h was -0.442%.

Consider `CNC(=O)[C@@H]1C[C@@H](NC(=O)Cc2cccs2)CN1C1CCOCC1`, for which the cytotoxicity at 70.5 h is -3.22%.

As to `c1cnc(N2CCC3(CCCN(CC4CCCCC4)C3)C2)cn1` (configuration not stated), the cytotoxicity at 70.5 h was -11.2%.

`CSc1ccc(-c2nc(CN3CCNCC3C)c(C)o2)cc1` (configuration not stated): the cytotoxicity at 70.5 h worked out at 3%.

As for `CCOc1ccc(CCCC(=O)N2CCC(c3nnn[nH]3)CC2)cc1C`, the cytotoxicity at 70.5 h was -11.9%.

For `CCCOC1CCCN(Cc2nc(-c3ccc(F)cc3F)oc2C)C1` (configuration not stated), the cytotoxicity at 70.5 h is -5.84%.

With `O=C(O)[C@@H]1CN(Cc2ccc(-c3cc[nH]n3)s2)C[C@H]1C1CC1`, the cytotoxicity at 70.5 h was -4.26%.

In the case of `CN1CCC(CNC(=O)Cc2ccc(N(C)C)cc2)CC1`, the cytotoxicity at 70.5 h is -6.81%.

Regarding `O=C(c1coc(CN2CCN(c3ccccc3F)CC2)n1)N1CC=CC1`, the cytotoxicity at 70.5 h was 15.2%.

Consider `Cc1ccccc1CN(CCN(C)C)Cc1ccc(O)c(C(=O)O)c1`, for which the cytotoxicity at 70.5 h is -8.19%.

As for `Cn1cc2ncn(CCCOc3cccnc3)c(=O)c2n1`, the cytotoxicity at 70.5 h was found to be 22.8%.

`CN1CC2(CCCN(c3cnccn3)C2)OC1=O` (configuration not stated): the cytotoxicity at 70.5 h was -9.73%.

For the compound `CCCc1nnc(N2C[C@@H](C)[C@@](C)(O)C2)s1`, the cytotoxicity at 70.5 h amounted to 12%.

Turning to `Cc1ccccc1-n1cc(-c2ccnc(N3CCCC(CN)C3)n2)cn1` (configuration not stated), the cytotoxicity at 70.5 h is -7.47%.

For `CC(=O)NC1CCN(c2nc(N)nc3c2CCCC3)C1` (configuration not stated), the cytotoxicity at 70.5 h is -8.84%.

On to `CC(O)C1CCN(Cc2cnc3c(-c4ccccc4)cnn3c2)CC1` (configuration not stated), for which the cytotoxicity at 70.5 h was -7.53%.

`CN(C)C(C(=O)N1Cc2ccccc2C1)c1ccccc1F` (configuration not stated): the cytotoxicity at 70.5 h was -2.59%.

As to `O=C(NCCc1c[nH]cn1)c1ccccc1C1CCNC1` (configuration not stated), the cytotoxicity at 70.5 h was found to be 18%.

For `CCN(Cc1cnn(CC)c1)Cc1c(Cl)cncc1Cl`, the cytotoxicity at 70.5 h was -2.13%.

For `O=C(c1ccncc1F)N1C[C@H]2CC[C@@H]1CN(Cc1cccnc1)C2`, the cytotoxicity at 70.5 h is -4.95%.

`CCn1ncnc1C(C)NC(=O)C1CCN(C2CCCCC2)CC1` (configuration not stated): the cytotoxicity at 70.5 h is -7.1%.

For `COCCN1CCN(Cc2nccs2)[C@H]2CS(=O)(=O)C[C@H]21`, the cytotoxicity at 70.5 h is -2.69%.

With `Fc1ccc(C2(CNCCc3cccs3)CCOC2)cc1` (configuration not stated), the cytotoxicity at 70.5 h is -6.84%.

Consider `O=C(O)[C@@H]1CN(C(=O)CN2Cc3ccccc3C2)C[C@H]1c1ccncc1`, for which the cytotoxicity at 70.5 h was -1.71%.

Turning to `O=C(O)[C@@H]1CN(C(=O)CCCc2ccc(F)cc2)C[C@H]1C1CC1`, the cytotoxicity at 70.5 h is -5.36%.

`C=Cc1cccc(CN2C[C@@H](CN(C)CC)[C@@H](CO)C2)c1`: the cytotoxicity at 70.5 h was 3.14%.

Take `O=C(O)c1ccc(CC2CCN(Cc3ccc(-c4cc[nH]n4)o3)C2)cc1` (configuration not stated): the cytotoxicity at 70.5 h is -5.13%.

`Cc1cc(C)cc(-n2ncc3c2CCCC3N)c1` (configuration not stated): the cytotoxicity at 70.5 h was -5.06%.

With `COCCC(=O)N(Cc1cccnc1)CC1CCN(C2CCCC2)CC1`, the cytotoxicity at 70.5 h turned out to be 3.05%.

`Cc1nc(N(CCC(N)=O)Cc2ccccc2)c2nc(C)oc2n1`: the cytotoxicity at 70.5 h is 9.6%.

With `O=C(NCCc1nc2ccccc2s1)c1coc(CN2CCOCC2)c1`, the cytotoxicity at 70.5 h came out at 5.71%.

In the case of `CC(C)NC(=O)[C@@H]1C[C@@H](N)CN1C(=O)CCSCc1ccccc1`, the cytotoxicity at 70.5 h was 1.3%.

For `O=C(CN1CCCC1=O)NCc1cccnc1Oc1ccc(F)c(F)c1`, the cytotoxicity at 70.5 h is 1.24%.

For `C[C@@H]1CN(C(=O)CCN2CCOCC2)CC[C@]1(C)O`, the cytotoxicity at 70.5 h is -2.33%.

As to `Cc1ccc(CN(CCN(C)C)C(=O)Nc2cc(C(N)=O)ccc2C)s1`, the cytotoxicity at 70.5 h was found to be 21.3%.

In the case of `Cc1cc(-c2ccccc2Cl)nc(N)n1`, the cytotoxicity at 70.5 h is -8.36%.

In the case of `N#Cc1cccc(CN2CCN(C(=O)C3CCC3)[C@@H]3CS(=O)(=O)C[C@@H]32)c1`, the cytotoxicity at 70.5 h was -4.15%.

On to `O=S(=O)(c1ccc(-c2cnco2)cc1)N1CCC2(CCCNC2)C1` (configuration not stated), for which the cytotoxicity at 70.5 h is -1.83%.

Regarding `CN1CCC(N2CC[C@@H]3[C@@H](CCC(=O)N3CCC3=CCCCC3)C2)CC1`, the cytotoxicity at 70.5 h was -1.35%.

Turning to `COc1nccnc1N1CCC2(CC1)C(=O)N(C)c1ccccc12`, the cytotoxicity at 70.5 h is -2.17%.

As to `O=C(c1n[nH]c2c1CCC2)N1CCCC1c1nc(-c2ccccc2)no1` (configuration not stated), the cytotoxicity at 70.5 h is -1.83%.

For the compound `CN(C)c1ccc(C2CC(=O)Nc3c2cnn3Cc2ccco2)cc1` (configuration not stated), the cytotoxicity at 70.5 h is -7.08%.
